The text below walks through data of PubChem BioAssay (NCI).

Some test systems named below: A549 NSCLC; MALME-3M melanoma; NCI-H522 lung; SK-MEL-28 melanoma; SK-MEL-5 melanoma; SN12C renal; SR leukemia; LOX IMVI melanoma; HS 578T breast; NCI/ADR-RES ovarian.
Experiment in all cases: DTP human tumour cell line panel, 48 h

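Each compound was tested at five concentrations against cells in 96-well plates for 48 hours. GI50 marks 50% less growth. The concentration for full growth arrest is given as TGI.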

Broadly, the TGI is the concentration giving total growth inhibition. Read a low TGI as greater sensitivity of the cells. Take `O=C(N/C(=C\c1ccc([N+](=O)[O-])cc1)c1nc2ccc(Cl)cc2[nH]1)c1ccccc1`: the TGI in the test with A549 NSCLC was 74.8 µM; in the test on MALME-3M melanoma, 97.9 µM; with NCI-H522 lung, 27.8 µM; in the test on SK-MEL-28 melanoma, 83.7 µM; with SK-MEL-5 melanoma, 33.7 µM; in the test on SN12C renal, 41.9 µM. In the test with SR leukemia, the TGI came out at 63.3 µM.

Regarding `CC(C(=O)c1ccccc1)C1(O)C(=O)Nc2ccccc21` (stereo not given), the TGI with A549 NSCLC, in the test on LOX IMVI melanoma, in the test on MALME-3M melanoma, in the test on NCI-H522 lung, in the test with SK-MEL-28 melanoma and in the test on SK-MEL-5 melanoma was more than 100 µM throughout. The TGI in the test on SN12C renal and in the test on SR leukemia was more than 100 µM each time.

Turning to `O=S1c2ccccc2N=C(c2ccc(Cl)cc2)CC1c1cccs1` (stereo not given), the TGI in the test with A549 NSCLC is more than 100 µM; in the test with LOX IMVI melanoma, 25.9 µM; in the test with MALME-3M melanoma, more than 100 µM; in the test on NCI-H522 lung it was 83.5 µM; in the test with SK-MEL-28 melanoma, 38.4 µM; in the test on SK-MEL-5 melanoma, 36.9 µM. Besides, the TGI in the test with SN12C renal was found to be 38 µM; in the test on SR leukemia it was 43.1 µM.

`S=P(c1ccccc1)(c1ccccc1)C1(C2(P(=S)(c3ccccc3)c3ccccc3)CC2)CC1`: the TGI in the test with A549 NSCLC, with LOX IMVI melanoma, in the test with NCI-H522 lung, with SK-MEL-28 melanoma, with SK-MEL-5 melanoma and with SN12C renal was more than 100 µM in each case. The molecule also had a TGI with SR leukemia of more than 100 µM.

With `CC(Oc1ccc(OCC2CCCCC2)cc1)C(=O)O` (stereo not given), the TGI in the test with A549 NSCLC, in the test on LOX IMVI melanoma, in the test with MALME-3M melanoma, in the test with NCI-H522 lung, in the test with SK-MEL-28 melanoma and with SK-MEL-5 melanoma was more than 100 µM each time. Besides, in the test on SN12C renal, the TGI was more than 100 µM.

Consider `C[C@]12CC(C#N)C(=O)C(O)=C1CC[C@@H]1C2CC[C@@]2(C)C1CC[C@@H]2O` (stereo not given in full), for which the TGI with A549 NSCLC, with LOX IMVI melanoma, in the test on MALME-3M melanoma, with SK-MEL-28 melanoma, with SK-MEL-5 melanoma and with SN12C renal was more than 100 µM each time.

With `COc1cc2ccc(/C(C)=N/OC(C)=O)cc2cc1OC`, the TGI in the test with A549 NSCLC, with LOX IMVI melanoma, in the test on MALME-3M melanoma, with NCI-H522 lung, with SK-MEL-28 melanoma and in the test on SN12C renal was more than 100 µM throughout.

For `CCN(CC)CCOC(=O)/C(=C/c1ccc(OC)cc1)c1cc(OC)c(OC)c(OC)c1`, the TGI is more than 100 µM in the test on A549 NSCLC; 18.6 µM with LOX IMVI melanoma; 34.1 µM in the test with MALME-3M melanoma; 9.32 µM with NCI-H522 lung; more than 100 µM in the test with SK-MEL-28 melanoma; 11.4 µM with SK-MEL-5 melanoma. Also, the TGI in the test on SN12C renal was found to be 57.5 µM.

Turning to `c1ccc2c(c1)nnn2CNc1ccc(N2CCOCC2)cc1`, the TGI with A549 NSCLC, with LOX IMVI melanoma, with MALME-3M melanoma, in the test with NCI-H522 lung, with SK-MEL-28 melanoma and in the test with SN12C renal was more than 100 µM throughout. The molecule also gave a TGI with SR leukemia of more than 100 µM.

In general, GI50 refers to the concentration giving 50% growth inhibition. Take `NCCCn1c2c(c3cc4c(cc3c1=O)OCO4)C(=O)c1ccccc1-2`: the GI50 in the test on HS 578T breast is 1.88 µM; in the test with LOX IMVI melanoma it was 0.14 µM; in the test on NCI-H522 lung, 1.92 µM; with NCI/ADR-RES ovarian, 0.7 µM; in the test on SK-MEL-5 melanoma, 0.215 µM; in the test on SN12C renal, 0.975 µM. Further, the TGI in the test with HS 578T breast is 4.4 µM; with LOX IMVI melanoma, more than 100 µM; with NCI-H522 lung it was 4.39 µM; with NCI/ADR-RES ovarian, 2.11 µM; in the test with SK-MEL-5 melanoma it was 0.656 µM; in the test on SN12C renal it was 2.49 µM.

Regarding `CCCC1C(=O)C(CC)Cc2c(OC)ccc(OC)c21` (stereo not given), the TGI with A549 NSCLC, in the test with LOX IMVI melanoma, in the test with MALME-3M melanoma, with NCI-H522 lung, in the test on SK-MEL-28 melanoma and with SK-MEL-5 melanoma was more than 100 µM throughout. In the test on SN12C renal, this molecule gave a TGI of more than 100 µM.

Take `NC1=NC(c2ccccc2)CC(c2cc(Cl)cc(Br)c2O)=N1` (stereo not given): the TGI with A549 NSCLC is 34.6 µM; with LOX IMVI melanoma, 27.7 µM; with MALME-3M melanoma, 15.9 µM; with NCI-H522 lung it was 15.4 µM; in the test with NCI/ADR-RES ovarian it was 29.9 µM; with SK-MEL-28 melanoma, 28.9 µM. Also, the TGI in the test on SK-MEL-5 melanoma was 25 µM; in the test on SN12C renal, 30.3 µM; with SR leukemia, more than 100 µM.

Take `COc1cc2ccnc3c2c(c1OC)CC1CC(O)C(OC)CC31` (stereo not given): the TGI was more than 100 µM with A549 NSCLC; more than 100 µM in the test with LOX IMVI melanoma; more than 100 µM in the test on MALME-3M melanoma; more than 100 µM with NCI-H522 lung; 75.2 µM with SK-MEL-28 melanoma; more than 100 µM in the test on SK-MEL-5 melanoma. For the same molecule, the TGI in the test with SN12C renal and with SR leukemia was more than 100 µM throughout.

Regarding `CC1Cc2c(N)nc(N3CCOCC3)nc2NC1=O` (stereo not given), the TGI in the test with A549 NSCLC, in the test on LOX IMVI melanoma, in the test on MALME-3M melanoma, in the test with NCI-H522 lung, in the test on SK-MEL-28 melanoma and with SK-MEL-5 melanoma was more than 100 µM each time. Further, in the test with SN12C renal, the TGI is more than 100 µM.

For the molecule `C=CCCC(C)N(C(=O)OC(C)(C)C)S(=O)(=O)c1ccc(C)cc1` (stereo not given), the TGI in the test with A549 NSCLC, with LOX IMVI melanoma, in the test on MALME-3M melanoma, in the test on NCI-H522 lung, in the test with SK-MEL-28 melanoma and with SN12C renal was more than 100 µM in each case. Moreover, the TGI in the test with SR leukemia is more than 100 µM.

With `C/C(=N\NS(=O)(=O)c1ccc(C)cc1)c1c(O)cc(C)oc1=O`, the TGI in the test on A549 NSCLC, in the test on LOX IMVI melanoma, in the test on MALME-3M melanoma, in the test with SK-MEL-28 melanoma, in the test on SK-MEL-5 melanoma and in the test with SN12C renal was more than 100 µM throughout. Also, the TGI in the test with SR leukemia is more than 100 µM.
